One series deals with ERWINIA AMYLOVORA
The experiment in a line: Minimal inhibitory concentration (CMI) at varying pH. It counts as cell-based. From the text:
(§1) Une autre conséquence inattendue de la valeur du pH est l'influence sur l'activité antibactérienne elle-même. Selon l'invention, c'est en milieu pH acide que l'on obtient la meilleure activité antibactérienne.
(§2) A titre d'exemple, on donne ci-après les concentrations minimales inhibitrices (CMI) obtenues vis-à-vis de quelques bactéries phytopathogènes en faisant varier le pH.

The next series deals with PSEUDOMONAS SYRINGAE
The description is as above. It counts as cell-based.
From the text: as §1, §2

For another series, the system named is PSEUDOMONAS VIRIDIFLAVA
The series is described as above. It counts as cell-based.
From the text: as §1, §2

Another series concerns XANTHOMONAS CYNARAE. Described as above. It counts as cell-based.
From the text: as §1, §2

For the next series, the system named is XANTHOMONAS PRUNI. The description is as above. It counts as cell-based.
From the text: as §1, §2

Another series is described as follows: physchem. Conditions: water. From the text: Une deuxième solution consiste à diminuer la solubilité du produit.

In brackets after ≈: the same amount, converted by molar mass.

As to `CC1CCc2cc(F)cc3c(=O)c(C(=O)O)cn1c23` (centres unmarked) [Fluméquine, acide [1H-5H] dihydro-6,7 fluoro-9 méthyl-5 oxo-1 benzo [i,j] quinolizine carboxylique-2], the “concentrations minimales inhibitrices (CMI)” value with ERWINIA AMYLOVORA (pH 5) is on record as 0,1; with ERWINIA AMYLOVORA (pH 6,5), 0,5; in the series on ERWINIA AMYLOVORA (pH 7,4) it was 1; in the series on PSEUDOMONAS SYRINGAE (pH 5) it was 0,5; in the series with PSEUDOMONAS SYRINGAE (pH 6,5) it was 2; in the series with PSEUDOMONAS SYRINGAE (pH 7,4), 4. Besides, the “concentrations minimales inhibitrices (CMI)” value in the series on PSEUDOMONAS VIRIDIFLAVA (pH 5) was 1; in the series with PSEUDOMONAS VIRIDIFLAVA (pH 6,5), 2; in the series on PSEUDOMONAS VIRIDIFLAVA (pH 7,4), 4; with XANTHOMONAS CYNARAE (pH 5), 0,5; in the series with XANTHOMONAS CYNARAE (pH 6,5) it was 1; in the series with XANTHOMONAS CYNARAE (pH 7,4), 2. Besides, the “concentrations minimales inhibitrices (CMI)” value was 0,25 with XANTHOMONAS PRUNI (pH 5), 1 in the series with XANTHOMONAS PRUNI (pH 6,5) and 2 in the series with XANTHOMONAS PRUNI (pH 7,4). Besides, the solubility in the series “physchem” (pH 5, water) is roughly 100 µg/mL (≈ 383 µM); in the series “physchem” (pH 7, water), 300 to 400 µg/mL (≈ 1150 to 1530 µM).
